{
  "source": "PubChem BioAssay AID624118",
  "about": "(National Center for Advancing Translational Sciences (NCATS), 2012)",
  "target": "Cytochrome P450 3A4 (Homo sapiens) (UniProt P08684)",
  "sequence (P08684 whole entry, looked up)": "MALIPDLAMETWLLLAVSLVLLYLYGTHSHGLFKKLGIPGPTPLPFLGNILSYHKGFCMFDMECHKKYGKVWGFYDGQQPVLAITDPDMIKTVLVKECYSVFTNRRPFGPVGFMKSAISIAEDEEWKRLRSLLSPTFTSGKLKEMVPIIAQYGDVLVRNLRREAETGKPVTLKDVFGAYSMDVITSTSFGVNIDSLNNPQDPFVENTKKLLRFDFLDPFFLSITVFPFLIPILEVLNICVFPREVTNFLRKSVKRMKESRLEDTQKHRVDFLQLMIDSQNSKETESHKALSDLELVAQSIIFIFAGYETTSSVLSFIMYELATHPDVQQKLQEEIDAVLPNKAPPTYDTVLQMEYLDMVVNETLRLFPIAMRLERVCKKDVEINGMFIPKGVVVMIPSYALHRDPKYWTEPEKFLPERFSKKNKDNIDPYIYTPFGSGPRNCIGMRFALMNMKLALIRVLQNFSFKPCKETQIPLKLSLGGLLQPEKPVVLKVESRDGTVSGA",
  "test": "qHTS Assay for Inhibitors of Bacillus subtilis Sfp phosphopantetheinyl transferase (PPTase): CYP 3A4",
  "conditions": "CYP3A4 inhibition, 3 uM, ADME profiling; stronger effect = higher value",
  "description": "The covalent attachment of a phosphopantetheinyl (4'-PP) arm to a variety of synthases and other proteins is a key posttranslational protein modification. The 4'-PP is installed on the proteins post-translationally from coenzyme A (CoA) on a conserved serine residue by action of phosphopantetheinyl transferase (PPTase) enzymes. Phosphopantetheinylation is essential for synthase activity, and removal of the PPTase gene precludes natural product synthesis in microorganisms, or in the case of fatty acid biosynthesis, renders the organism unviable. PPTase enzymes belong to a distinct structural superfamily. Within bacteria, these enzymes are grouped into two classes based upon primary structure, the AcpS-Type and Sfp-Type PPTases.\nSfp-type PPTases, corresponding to an activator of surfactin production in Bacillus subtilis, are responsible for modifying type I polyketide and nonribosomal peptide synthases of prokaryotes. Sfp-type PPTases are responsible for the activation of a variety of pathogen-associated virulence factors. Among these compounds are toxins such as mycolactone from Mycobacterium ulcerans, siderophores such as vibriobactin from Vibrio cholerae or mycobactin from Mycobacterium tuberculosis, as well as the mycolic acids which form the waxy cell wall of Mycobacteria. The biosyntheses of these natural products are considered attractive targets for drug design. […]",
  "data": [
    {"compound": "COc1ccnc(NC(=S)N2CCN(c3ncc(C(F)(F)F)cc3Cl)CC2)c1", "values": [
      {"measurement": "inhibition", "value": 20, "unit": "%"}
    ]}
  ]
}
